Data taken from patent publication EP1001774B1, “USE OF PHOSPHOLAMBAN INHIBITORS FOR INCREASING CORONARY FLOW” (ORION CORPORATION, priority 1997, dated 1999).
“Also recorded” adds a separate entry of the source.

Tests used:
phospholamban = biological target: T1, phospholamban (Cavia porcellus, UniProt A0A286XLC6); experiment: Calcium uptake assay (fluo-3) in SR vesicles from cardiac tissue; assay type: biochemical, guinea-pig; conditions: 50 and 100 µM; Figure 2A; three experiments per group
T1 construct: calcium uptake into the SR vesicles prepared from cardiac tissue; from tissue; host or cells: guinea-pig heart (ventricular myocardium), SR vesicle preparation
T1 sequence (A0A286XLC6 1-52): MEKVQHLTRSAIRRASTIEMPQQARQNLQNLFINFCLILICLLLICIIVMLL
Excerpt: (§1) The direct binding of a compound to the phospholamban protein can be ascertained by the circular dichroism (CD) spectroscopy. The methods for determining whether a compound relieves the inhibitory effect of phospholamban on SR Ca^2+-ATPase by direct binding to the phospholamban protein, i.e. is a phospholamban inhibitor, are illustrated in detail in the experimental section.
(§2) The effect on phospholamban of the compounds used in the invention was verified by measuring its effects on calcium uptake into the SR vesicles prepared from cardiac tissue and into vesicles prepared from fast skeletal muscle (psoas m.). […] The methods are described below in detail.
(§3) Guinea pigs (10-12) were decapited. Their hearts or the psoas muscles were excised, washed in ice-cold 0.9 % NaCl and cut into pieces in a buffer containing 20 mM Tris-maleate, 0.3 M sucrose, pH 7.0. Thereafter tissue pieces were homogenized with Polytron and further with Potter (10 strokes). The homogenate was centrifugated at 1000 g for 15 min at 4 °C. The supernatant was collected and the pellet was resuspended into 5 ml of the buffer (20 mM Tris-maleate, 0.3 M sucrose, pH 7.0) and recentrifugated at 1000 g for 10 min at 4 °C. The obtained supernatant was combined with the earlier collected supernatant and centrifugated once again at 10 000 g for 20 min at 4 °C. The final supernatant was filtered into a bottle equipped with a magnetic stirrer. KCl was added to the filtered supernatant to achieve the final concentration of 0.6 M (at 4 °C). The obtained solution was centrifugated at 100 000 g for 60 min at 4 °C. The pellet was suspended in 5 ml of the buffer containing 20 mM Tris-maleate, 0.3 M sucrose, pH 7.0 and centrifugated at 100 000 g for 60 min at 4 °C. The obtained pellet was suspended in 5 ml of buffer containing 20 mM Tris-maleate, 0.3 M sucrose, 0.1 M KCI, pH 7.0 and stored at -80 °C until use. The protein concentration was also measured in order to standardise the separately prepared vesicle preparations.
(§4) In the calcium uptake assay, the fluorescent indicator, fluo-3 was used to detect the decrease of the extravesicular Ca^2+-concentration, when the SR Ca^2+ATPase was transferring Ca^2+ from the extravesicular space into the SR-vesicles.
(§5) The SR-vesicles obtained above (50 µg protein/ml) were preincubated with or without the test compound at 37 °C for 5 min in the assay buffer containing 40 mM imidazole, 95 mM KCI, 5 mM NaN3, 5 mM MgCl2, 0.5 mM EGTA, 5 mM potassium oxalate, 2 µM ruthenium red, 5 µM fluo-3, pH 7.0. The free calcium was adjusted to 0.1 µM or to 0.04 µM by CaCl2. The reaction was initiated by adding ATP (5 mM). The final reaction volume was 1.5 ml. The fluorescence of reaction mixture was measured for 3 min by using the excitation and emission wavelengths of 510 nm and 530 nm, respectively.

SR Ca^2+-ATPase = experiment: Calcium uptake assay (fluo-3) in SR vesicles from fast skeletal muscle (psoas m.), which contain no phospholamban; assay type: biochemical, guinea-pig; conditions: 50 and 100 µM; Figure 2B; three experiments per group
Excerpt: as §1, §2, §3, §4, §5

PLB[1-36 a.a.] = biological target: T2, PLB[1-36 a.a.] (Homo sapiens, UniProt P26678); experiment: Circular dichroism (CD) spectroscopy, binding to the cytosolic part of phospholamban; conditions: 50 µM in water, Fig. 1
T2 construct: N-terminal fragment of human phospholamban (PLB [1-36 a.a.]); made in house; host or cells: chemical peptide synthesis (no expression host)
T2 sequence (P26678 1-36 limits assumed): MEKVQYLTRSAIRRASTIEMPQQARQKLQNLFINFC
Method: (§6) Both the 36 amino acid N-terminal fragment of human phospholamban (PLB [1-36 a.a.]) and the 36 amino acid N-terminal fragment of double phosphorylated human phospholamban (PLB [1-36 a.a.](Ser16PO3-, Thr17PO3-)) were obtained by peptide synthesis. The peptides were purified by reverse phase HPLC, analysed for homogenity by mass spectrometry and were found pure at 97 %. The peptides were lyophilized and then resuspended in water at the final concentration of 0.1 mM, for CD analysis. The pH of both solutions was between 3 and 4 and was not further adjusted. Compound of Example 1c was solved in water at a final concentration of 0.1 mM. The pH was adjusted at 7.2 by adding 1 N NaOH.
(§7) Circular dichroism spectra were acquired at 24 °C on samples of 100 µl. The spectra were recorded on a Jasco J-720 spectropolarimeter using a 1 mm path-length quartz cuvette. The band width was 1 nm, the sensitivity 20 mdeg, the step resolution 0.5 nm, the response time 0.5 sec, and the scan speed 20 nm/min (from 250 to 190 nm). The spectra were expressed in [θ] x 10^-3 x degrees x cm^2 x dmol^-1.

[1] = biological target: T3, PLB[1-36 a.a.](Ser16PO3-, Thr17PO3-) (Homo sapiens, UniProt P26678); experiment: Circular dichroism (CD) spectroscopy, binding to double phosphorylated phospholamban fragment; conditions: 50 µM in water, Fig. 1
T3 construct: (PLB [1-36 a.a.](Ser16PO3-, Thr17PO3-)); made in house; host or cells: chemical peptide synthesis (no expression host)
T3 sequence (P26678 1-36): T2 sequence (P26678 1-36 limits assumed)
Method: as §6, §7

coronary arteries = experiment: Coronary flow in isolated paced heart (Langendorff, constant pressure); design: species or system guinea-pig; conditions: 0.3 - 30 µM; six hearts paced at 250 beats/min; Figure 3A
Method: Guinea-pigs of either sex weighing 300-400 g were used in the study. After the guinea-pig was sacrificed by a blow on the skull and decapitated the heart was rapidly excised. The heart was then rinsed in cold oxygenated perfusion buffer. A cannula was inserted into the aorta and secured with a ligature. Retrograde perfusion began as soon as the heart was placed in a thermostatically controlled moist chamber of the Langendorff apparatus. Modified Tyrode solution (37 °C), equilibrated in a thermostatically controlled bulb oxygenator with carbogen (95 % O2 and 5% CO2) was used as a perfusion buffer. The composition of the Tyrode solution was (in mM): NaCl 135; MgCl2 x 6H2O 1; KCl 5; CaCl2 x 2H2O 2; NaHCO3 15; Na2HPO4 x 2H2O 1; glucose 10; pH 7.3-7.4. The experiments were carried out under constant pressure condition (50 mmHg). After a short prestabilization (10 min) a latex balloon (size 4) was carefully placed into the left ventricle through the left pulmonary vein and the left atrium. The latex balloon was attached to a stainless-steel cannula coupled with a pressure transducer. The latex balloon, the cannula and the chamber of the pressure transducer were filled with ethylene glycol / water (1:1) mixture avoiding any air-bubble. The isovolumetric left ventricular pressure was recorded through the pressure transducer. The maximal positive and negative derivatives of the left ventricular pressure were calculated by using the digitized pressure signals. At the beginning of the experiment, the volume of the balloon was adjusted to obtain a diastolic pressure of approximately 5 mmHg. Coronary flow (ml/min) was continuously recorded by an electromagnetic flow meter with a flow probe inserted above the aortic cannula. The heart was paced at 250 beats/min with a coaxial electrode localized on the surface of the right atrium. Before starting the experiment, the heart was allowed to stabilise further for 30 - 50 min with vehicle (0.1% DMSO) to reach a stable coronary flow.
After 15 min baseline recording various concentrations of the test compound of Example 1c were added to the perfusion buffer at 15 min intervals. The concentration range of 0.3 - 30 µM was tested. The vehicle concentration (0.1% DMSO) was kept constant throughout the experiment.

[2] = system: endothelial cells of the coronary vessels; experiment: Coronary flow in freely beating isolated heart with and without Triton x 100 destruction of endothelial cells; design: species or system guinea-pig; conditions: 0.3 - 30 µM; Figures 4A and 4B
Method: Substance P, an endothelial-dependent vasodilator, was used as a reference compound. Triton x 100 was used to destroy the endothelial cells of the coronary vessels.
The experiment was carried out under constant pressure condition (50 mmHg) on freely beating heart. Coronary flow (ml / min) was continuously recorded by an electromagnetic flow meter with a flow probe inserted above the aortic cannula.
After 15 min baseline recording a bolus dose of substance P (0.1 µM / 0.3 ml) was added to the perfusion buffer via a side branch of the aortic cannula (Figure 4B). The addition of substance P was repeated twice before the injection of triton x 100 (0.05% / 0.2 ml) was given via a needle inserted into the cannula just above the aorta. After 85 min of triton x 100 injection a control dose of substance P was added twice to the perfusion buffer in order to check if the endothelial cells has destroyed. Thereafter the concentration range of 0.3 - 30 µM of the compound of Example 1c was tested. The vehicle concentration (0.1% DMSO) was kept constant throughout the experiment. A control experiment is shown in Figure 4A where the effect of Example 1 c is seen at the same concentration range when the […] is not disrupted by Triton x 100.

Which “Ca^2+ uptake rate into the cardiac SR vesicles” value (phospholamban) does the source give for `Cc1c(Cc2ccccc2)c(=O)oc2cc(OCc3nnn[nH]3)cc(OCc3nnn[nH]3)c12` [Example 1c, 3-Benzyl-5,7-bis[(1H -tetrazol-5-yl)methoxy]-4-methyl-2H-1-benzopyran-2-one] here?
Its value is “accelerated the calcium uptake into the cardiac SR vesicles”.

What about the “Ca^2+ uptake rate into the fast skeletal muscle SR vesicles” value (SR Ca^2+-ATPase) of the same compound?
Its value is “did not change the calcium uptake”.

And the “interaction with PLB[1-36 a.a.] (CD spectra)” value (PLB[1-36 a.a.])?
Its value is “forms a complex with PLB at their N-terminal domain; also recorded: interacts with the cytosolic part of phospholamban PLB[1-36 a.a.]”.

And the “interaction with PLB[1-36 a.a.](Ser16PO3-, Thr17PO3-) (CD spectra)” value [1]?
Its value is “does not interact or interacts weakly with the phosphorylated phospholamban”.

And the coronary flow (coronary arteries)?
Its coronary flow is “increase in coronary flow”.

What about the “mechanism of the vasodilatory effect (coronary flow with / without Triton x 100)” value [2] of the same compound?
Its value is “due to an endothelial-mediated mechanism”.
